From the NIST ThermoML archive (doi:10.1016/j.jct.2009.07.002)

Assay: isobaric coefficient of expansion
Settings: Liquid, DSC with Pressure Shift

CCC(O)CC [3-pentanol]
isobaric coefficient of expansion
Settings	278.15 K	288.15 K	298.15 K	308.15 K	318.15 K	328.15 K	338.15 K	348.15 K
5000 kPa	0.000898 1/K	0.000935 1/K	0.000971 1/K	0.00101 1/K	0.00106 1/K	0.00109 1/K	0.00115 1/K	0.0012 1/K
10000 kPa	0.000875 1/K	0.000916 1/K	0.000952 1/K	0.00099 1/K	0.00103 1/K	0.00107 1/K	0.00113 1/K	0.00117 1/K
15000 kPa	0.000861 1/K	0.000898 1/K	0.000935 1/K	0.00097 1/K	0.00101 1/K	0.00104 1/K	0.0011 1/K	0.00113 1/K
20000 kPa	0.00085 1/K	0.000882 1/K	0.000917 1/K	0.000953 1/K	0.000989 1/K	0.00103 1/K	0.00107 1/K	0.00111 1/K
25000 kPa	0.000826 1/K	0.000868 1/K	0.000899 1/K	0.000934 1/K	0.00097 1/K	0.00101 1/K	0.00105 1/K	0.00108 1/K
30000 kPa	0.000814 1/K	0.00085 1/K	0.00088 1/K	0.000919 1/K	0.000952 1/K	0.000983 1/K	0.00102 1/K	0.00106 1/K
35000 kPa	0.000802 1/K	0.000837 1/K	0.000866 1/K	0.000899 1/K	0.000932 1/K	0.000965 1/K	0.001 1/K	0.00103 1/K
40000 kPa	0.000799 1/K	0.000823 1/K	0.000852 1/K	0.000888 1/K	0.000914 1/K	0.000949 1/K	0.000976 1/K	0.00101 1/K
45000 kPa	0.000766 1/K	0.000807 1/K	0.000839 1/K	0.000869 1/K	0.000897 1/K	0.00093 1/K	0.000953 1/K	0.000986 1/K
50000 kPa	0.000769 1/K	0.000792 1/K	0.000822 1/K	0.000852 1/K	0.000879 1/K	0.000907 1/K	0.000931 1/K	0.00096 1/K
55000 kPa	0.000743 1/K	0.000771 1/K	0.000806 1/K	0.000837 1/K	0.000862 1/K	0.000887 1/K	0.00091 1/K	0.000936 1/K

CCCCCCCCCCO [decan-1-ol]
isobaric coefficient of expansion
Settings	298.15 K	308.15 K	318.15 K	328.15 K	338.15 K	348.15 K
5000 kPa	0.000809 1/K	0.000822 1/K	0.000837 1/K	0.00085 1/K	0.000869 1/K	0.000895 1/K
10000 kPa	0.000792 1/K	0.0008 1/K	0.000814 1/K	0.000827 1/K	0.000843 1/K	0.000863 1/K
15000 kPa	0.000776 1/K	0.000784 1/K	0.000795 1/K	0.000803 1/K	0.000819 1/K	0.000832 1/K
20000 kPa	0.000755 1/K	0.000764 1/K	0.000775 1/K	0.000781 1/K	0.000799 1/K	0.000812 1/K
25000 kPa	0.000739 1/K	0.000748 1/K	0.000758 1/K	0.000765 1/K	0.000779 1/K	0.000792 1/K
30000 kPa	0.000725 1/K	0.00073 1/K	0.000743 1/K	0.000748 1/K	0.00076 1/K	0.000775 1/K
35000 kPa	0.000715 1/K	0.000719 1/K	0.000726 1/K	0.000732 1/K	0.000745 1/K	0.000755 1/K
40000 kPa	0.000702 1/K	0.000706 1/K	0.000711 1/K	0.000719 1/K	0.000729 1/K	0.000738 1/K
45000 kPa	0.00069 1/K	0.00069 1/K	0.000699 1/K	0.000704 1/K	0.000713 1/K	0.000722 1/K
50000 kPa	0.000679 1/K	0.00068 1/K	0.000688 1/K	0.000691 1/K	0.000701 1/K	0.000708 1/K
55000 kPa	0.000669 1/K	0.000669 1/K	0.000676 1/K	0.000679 1/K	0.000689 1/K	0.000697 1/K
